Source: article PMC10959927, “Platinum iodido drugs show potential anti-tumor activity, affecting cancer cell metabolism and inducing ROS and senescence in gastrointestinal cancer cells” (Communications Biology, 2024)
“And” between values parts separate entries of the source, which are not always exact repeats. Equal values may be shown once.

Legend:
Format in all cases: cell-based, human
[1] = test system: PANC1 cells; assay: Clonogenic (CFU) assay after 1, 3, 24 h pre-treatment
Procedure: (§1) For the clonogenic assay we used two different approaches. […] Then, cells were cultured in a 6-well plate at a very low concentration (2 × 10^3 cells per well) and incubated for 10 days. […] To evaluate the role of ROS in cell proliferation, we supplemented the growth medium with 0.5 mM NAC. After 10 days, the cells were fixed with 1% glutaraldehyde and stained with 0.1% crystal violet. The number of colonies was quantified directly and reflected as CFUs: Colony Forming Units.

[2] = test system: PANC1 cells; assay: Ratio GSH/GSSG, colorimetric kit
Procedure: (§2) GSH and GSSG levels were determined in AGS and PANC1 cells after 3 and 24 h of treatment with the compounds (using H2O2 as a positive control) with the Glutathione Colorimetric Detection Kit (ThermoFisher) following the manufacturer’s instructions. Thirty minutes after adding the Colorimetric Detection Reagent and the Reaction Mixture, the absorbance was read at 405 nm. A standard curve was generated with each assay to interpolate the sample results. To measure GSSG, standards and samples must be diluted with the Sample Diluent containing 2-vinylpyridine.

[3] = test system: AGS cells; assay: Ratio GSH/GSSG, colorimetric kit
Procedure: as §2

[4] = test system: MKN45 cells; assay: Lactate production assay; conditions: replicates
Procedure: (§3) Lactate production assay. […] Proteins were removed from 50 μL of the medium by adding 100 μL of 8% Percloric Acid and 40% EtOH at 4 °C, and centrifuging at 2 × 10^4 g for 10 min at 4 °C. The supernatants were then frozen until the lactate in 15 μL of each sample, or lactate standard, was measured mixed with 150 μl of assay buffer (0.5 M glycine [pH 9.5], 0.2 M Hydrazine, 3.4 mM EDTA), 100 μl of H20, 5 μL of 1100 U/mL LDH (Roche) and 30 μL of 15 mM NAD + . NADH production was evaluated by measuring absorbance at 340 nm in a multiplate reader (Synergy HT, Biotek) and it was proportional to the lactic acid concentration in the sample after a 2 h incubation. The lactate concentration was normalized to the total amount of protein measured with the Micro BCA Protein Assay Kit (Thermo Scientific). Assays were performed in triplicate in three independent experiments.

[5] = test system: PANC1 cells; assay: Lactate production assay; conditions: replicates
Procedure: as §3

[6] = test system: AGS cells; assay: Lactate production assay; conditions: replicates
Procedure: as §3

[7] = test system: MKN45 cells; assay: Immunofluorescence of γ-H2AX foci; conditions: Fig. 3B; for foci/cell, number of cells in class: cell count
Procedure: (§4) Cells (7 × 10^4) were seeded on 20 mm coverslips. […] Coverslips were incubated for 1 h with the primary antibody (Cell Signaling: H2AX Ser139 (#2595) and 53BP1 (#4937)) at room temperature, followed by a 1 h incubation with the appropriate secondary antibody. DNA was stained with DAPI. Fluorescence microscopy was performed using a NIKON Eclipse 90i. The image analysis was performed using the software program Nikon NIS-Elements and Image J.

[8] = test system: MKN45 cells; assay: Clonogenic (CFU) assay with or without NAC; conditions: 10 days
Procedure: as §1

[9] = test system: AGS cells; assay: Clonogenic (CFU) assay with or without NAC; conditions: 10 days
Procedure: as §1

[10] = test system: PANC1 cells; assay: Immunofluorescence of γ-H2AX and 53BP1 foci; conditions: for foci/cell, share of cells in class (Suma 100) / foci/cell, number of cells in class: PANC1, Fig. 3B; for foci/cell, number of cells in class: cell count
Procedure: as §4

[11] = test system: AGS cells; assay: Immunofluorescence of γ-H2AX and 53BP1 foci; conditions: for foci/cell, share of cells in class (Suma 100) / foci/cell, number of cells in class: Fig. 3B; for foci/cell, number of cells in class: cell count
Procedure: as §4

## CC(C)[NH][Pt@SP1]([I])([I])[NH]C(C)C [I6, cis-[PtI2(isopropylamine)2]]
[1]; PANC1, 1 h pre-treatment at IC50, colonies after 10 days
  CFUs: 336 and 264 and 360
[1]; PANC1, 3 h pre-treatment at IC50, colonies after 10 days
  CFUs: 292 and 280 and 324
[2]; PANC1, 3, relative to Control = 1
  GSH/GSSG: 0.8833 and 0.8858 and 1.064
[2]; PANC1, 24, relative to Control = 1
  GSH/GSSG: 0.52 and 0.6511 and 0.6572
[3]; AGS, 3, relative to Control = 1
  GSH/GSSG: 0.7708 and 0.7765 and 0.8015
[3]; AGS, 24, relative to Control = 1
  GSH/GSSG: 0.964 and 0.9646 and 1.003
[4]
  lactate assay: 3.98 Lactate mM/mg prot and 8.05 Lactate mM/mg prot and 7.53 Lactate mM/mg prot and 3.819 Lactate mM/mg prot and 1.91 Lactate mM/mg prot and 4.092 Lactate mM/mg prot and 2.56 Lactate mM/mg prot and 2.5 Lactate mM/mg prot and 2.54 Lactate mM/mg prot
[5]
  lactate assay: 11.33 Lactate mM/mg prot and 12.9 Lactate mM/mg prot and 10.14 Lactate mM/mg prot and 5.296 Lactate mM/mg prot and 5.829 Lactate mM/mg prot and 4.94 Lactate mM/mg prot and 4.32 Lactate mM/mg prot and 4.21 Lactate mM/mg prot and 4.26 Lactate mM/mg prot
[6]
  lactate assay: 3.22 Lactate mM/mg prot and 1.52 Lactate mM/mg prot and 3.74 Lactate mM/mg prot and 3.2668 Lactate mM/mg prot and 2.67 Lactate mM/mg prot and 5.511 Lactate mM/mg prot and 0.01 Lactate mM/mg prot and 0.02 Lactate mM/mg prot and 0.03 Lactate mM/mg prot
[7]; class 16-30 foci/cell
  foci/cell, share of cells in class (Suma 100): 16.6667
  foci/cell, number of cells in class: 7
[7]; class 31-45 foci/cell
  foci/cell, share of cells in class (Suma 100): 14.2857
  foci/cell, number of cells in class: 6
[7]; class 46-60 foci/cell
  foci/cell, share of cells in class (Suma 100): 23.8095
  foci/cell, number of cells in class: 10
[7]; class <15 foci/cell
  foci/cell, share of cells in class (Suma 100): 11.9048
  foci/cell, number of cells in class: 5
[7]; class >61 foci/cell
  foci/cell, share of cells in class (Suma 100): 33.3333
  foci/cell, number of cells in class: 14
[8]; MKN45 + NAC 0.5 mM, IC25 concentration
  colonies (CFUs), mean ± SD: 526 ± 93
[8]; MKN45 + NAC 0.5 mM, IC50 concentration
  colonies (CFUs), mean ± SD: 46 ± 2
[8]; MKN45, IC25 concentration, no NAC
  colonies (CFUs), mean ± SD: 1 ± 1.7
[8]; MKN45, IC50 concentration, no NAC
  colonies (CFUs), mean ± SD: 0
[9]; AGS + NAC 0.5 mM, IC25 concentration
  colonies (CFUs), mean ± SD: 613 ± 89
[9]; AGS + NAC 0.5 mM, IC50 concentration
  colonies (CFUs), mean ± SD: 329 ± 152
[9]; AGS, IC25 concentration, no NAC
  colonies (CFUs), mean ± SD: 268 ± 63
[9]; AGS, IC50 concentration, no NAC
  colonies (CFUs), mean ± SD: 0
[10]; PANC1, Fig. S4B, cell counts
  foci/cell: number of cells with 16-30 foci: 43
  foci/cell: number of cells with 31-45 foci: 7
  foci/cell: number of cells with 46-60 foci: 2
  foci/cell: number of cells with <15 foci: 39
  foci/cell: number of cells with >61 foci: 5
[10]; PANC1, Fig. S4B, share of N
  foci/cell: share of cells with 16-30 foci (Suma 100): 44.7917
  foci/cell: share of cells with 31-45 foci (Suma 100): 7.292
  foci/cell: share of cells with 46-60 foci (Suma 100): 2.083
  foci/cell: share of cells with <15 foci (Suma 100): 40.625
  foci/cell: share of cells with >61 foci (Suma 100): 5.208
[10]; class 16-30 foci/cell
  foci/cell, share of cells in class (Suma 100): 41.9753
  foci/cell, number of cells in class: 34
[10]; class 31-45 foci/cell
  foci/cell, share of cells in class (Suma 100): 18.5185
  foci/cell, number of cells in class: 15
[10]; class 46-60 foci/cell
  foci/cell, share of cells in class (Suma 100): 6.173
  foci/cell, number of cells in class: 5
[10]; class <15 foci/cell
  foci/cell, share of cells in class (Suma 100): 22.2222
  foci/cell, number of cells in class: 18
[10]; class >61 foci/cell
  foci/cell, share of cells in class (Suma 100): 11.1111
  foci/cell, number of cells in class: 9
[11]; class 16-30 foci/cell
  foci/cell, share of cells in class (Suma 100): 23.3831
  foci/cell, number of cells in class: 47
[11]; class 31-45 foci/cell
  foci/cell, share of cells in class (Suma 100): 26.3682
  foci/cell, number of cells in class: 53
[11]; class 46-60 foci/cell
  foci/cell, share of cells in class (Suma 100): 13.9303
  foci/cell, number of cells in class: 28
[11]; class <15 foci/cell
  foci/cell, share of cells in class (Suma 100): 29.3532
  foci/cell, number of cells in class: 59
[11]; class >61 foci/cell
  foci/cell, share of cells in class (Suma 100): 6.965
  foci/cell, number of cells in class: 14
[11]; Fig. S4B, cell counts
  foci/cell: number of cells with 16-30 foci: 54
  foci/cell: number of cells with 31-45 foci: 20
  foci/cell: number of cells with 46-60 foci: 3
  foci/cell: number of cells with <15 foci: 39
  foci/cell: number of cells with >61 foci: 4
[11]; Fig. S4B, share of N
  foci/cell: share of cells with 16-30 foci (Suma 100): 45
  foci/cell: share of cells with 31-45 foci (Suma 100): 16.6667
  foci/cell: share of cells with 46-60 foci (Suma 100): 2.5
  foci/cell: share of cells with <15 foci (Suma 100): 32.5
  foci/cell: share of cells with >61 foci (Suma 100): 3.333
